Data from paper PMC11162409, “Phenylalanine as an effective stabilizer and aggregation inhibitor of Bacillus amyloliquefaciens alpha-amylase” (AMB Express, 2024).

Target: Bacillus amyloliquefaciens alpha-amylase (BAA) (Bacillus amyloliquefaciens, UniProt P00692)
Assay: Bernfeld DNS assay of starch hydrolysis ([…] nm) with commercial enzyme
Assay type: biochemical

Sequence of Bacillus amyloliquefaciens alpha-amylase (BAA) (P00692 32-514): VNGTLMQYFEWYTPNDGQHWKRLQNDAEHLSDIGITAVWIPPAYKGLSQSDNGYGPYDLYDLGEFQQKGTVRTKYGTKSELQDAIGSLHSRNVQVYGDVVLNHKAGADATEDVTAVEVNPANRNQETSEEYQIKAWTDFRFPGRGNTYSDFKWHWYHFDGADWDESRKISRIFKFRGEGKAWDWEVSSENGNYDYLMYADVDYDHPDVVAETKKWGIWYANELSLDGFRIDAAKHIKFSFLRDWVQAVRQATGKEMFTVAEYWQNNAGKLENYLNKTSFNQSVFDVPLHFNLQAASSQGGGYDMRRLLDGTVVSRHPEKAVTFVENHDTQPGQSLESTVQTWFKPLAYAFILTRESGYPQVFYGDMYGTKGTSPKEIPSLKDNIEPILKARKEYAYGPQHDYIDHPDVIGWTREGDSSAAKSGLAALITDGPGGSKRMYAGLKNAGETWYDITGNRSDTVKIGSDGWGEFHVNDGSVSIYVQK

SMILES: N[C@@H](Cc1ccc(O)cc1)C(=O)O [Tyr, tyrosine]
- IC50: ~100 mM
